Reference: patent US8546389B2 (priority 2010, dated 2013)
Like-named read-outs stand apart in the source and are kept apart here.

Key:
[1] = test system: subgenomic genotype 2a replicon cell line; assay: HCV replicon assay, genotype 2a; format: cell-based, HCV genotype 2a; details: Hepatitis C virus
Description: (§1) A genotype 1b (Con 1) subgenomic replicon cell line based on Blight et al., Science 2000 290: 1972-1974, modified to express a Renilla luciferase reporter gene was used to assess antiviral activity of test compounds. Cell cultures were maintained in a sub-confluent state in DMEM with glutamine, 10% heat-inactivated foetal bovine serum (FBS) and G418 (Geneticin®).
(§2) For assay, cells were seeded at a density of 7000 cells/well into 96 well tissue culture trays in culture media lacking G418. Compounds were tested in a three fold dilution series, for example starting from 50 uM. After 72 hours incubation at 37° C. and 5% CO2, Renilla luciferase activity was quantified via the Promega Renilla Luciferase or Renilla-Glo™ Luciferase Assay Systems (Promega corporation. The same method was employed for replicon assays using subgenomic genotype 1a and 2a replicon cell lines with a seeding cell density of 5000 cells/well for the 2a cell lines.
(§3) The compound concentration that reduced luciferase activity by 50% (EC50) was calculated using non-linear regression.

[2] = test system: genotype 1b (Con 1) subgenomic replicon cell line; assay: HCV replicon assay, genotype 1b (Renilla luciferase); format: cell-based, HCV genotype 1b (Con 1); details: Hepatitis C virus, genotype 1b replicon
Procedure, shortened: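 Subgenomic replicon cells expressing Renilla luciferase (1b Con1; 1a and 2a lines by the same method) seeded at 7000 cells/well (5000 for 2a) without G418, exposed to 3-fold compound dilutions for 72 h at 37 °C. Luciferase activity measured; EC50 by non-linear regression.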

1b (BK) NS5bΔ21 = 1b (BK) NS5bΔ21 (Hepatitis C virus genotype 1b (isolate BK) (HCV), UniProt P26663); assay: HCV polymerase inhibition assay, genotype 1b; format: biochemical, HCV genotype 1b (BK); details: 1b (BK) NS5bΔ21, 33P-GTP incorporation; read-out: 1b polymerase IC50 (range class)
Chain of 1b (BK) NS5bΔ21 (P26663 2420-2989): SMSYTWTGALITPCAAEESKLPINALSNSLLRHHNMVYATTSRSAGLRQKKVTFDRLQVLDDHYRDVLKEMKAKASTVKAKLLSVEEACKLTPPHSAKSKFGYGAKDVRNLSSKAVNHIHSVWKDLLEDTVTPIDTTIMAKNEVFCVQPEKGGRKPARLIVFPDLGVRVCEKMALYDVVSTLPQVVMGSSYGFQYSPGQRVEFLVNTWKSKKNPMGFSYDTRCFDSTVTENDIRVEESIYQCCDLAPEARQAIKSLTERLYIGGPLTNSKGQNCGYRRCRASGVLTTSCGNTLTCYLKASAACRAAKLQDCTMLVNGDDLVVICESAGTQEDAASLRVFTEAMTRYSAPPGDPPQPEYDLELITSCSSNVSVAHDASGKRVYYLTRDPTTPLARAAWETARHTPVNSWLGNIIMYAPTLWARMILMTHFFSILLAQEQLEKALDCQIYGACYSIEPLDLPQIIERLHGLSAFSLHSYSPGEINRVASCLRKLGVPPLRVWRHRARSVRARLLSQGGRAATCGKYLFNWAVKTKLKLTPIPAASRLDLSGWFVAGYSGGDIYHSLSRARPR
Procedure, shortened: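 Both genotype 1b and 3a enzymes assayed identically: ^33P-GTP incorporation on poly(rC) template, GTP at Km, 50 nM NS5bΔ21, pH 7.5 Tris with 5 mM MgCl2 and MnCl2, 1 h reaction ended by cold EDTA. Filter-bound label counted; IC50 fitted by non-linear regression across three-fold dilution series.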

[3] = test system: subgenomic genotype 1a replicon cell line; assay: HCV replicon assay, genotype 1a; format: cell-based, HCV genotype 1a; details: Hepatitis C virus
Description: as §1, §2, §3

[4] = 72 hours, luciferase, read-out: genotype 1b EC50 (range class)

| Compound | EC50 [1] | EC50 [2, 4] | EC50 ([2]; read-out: Replicon 1b EC50) | IC50 (1b (BK) NS5bΔ21) | EC50 [3] |
| --- | --- | --- | --- | --- | --- |
| CNC(=O)c1c2cc(C3CC3)c(N(CCCNC(=O)c3ncoc3C)S(C)(=O)=O)cc2nn1-c1ccc(Br)cc1 [Compound 174] | 1730 nM | < 990 nM | 110 nM | < 990 nM | 60 nM |
| CNC(=O)c1c2cc(C3CC3)c(N(CCCNCc3ccc(OC)cc3)S(C)(=O)=O)cc2nn1-c1ccc(Br)cc1 [Compound 210] | – | 1000 to 9990 nM | – | 1000 to 9990 nM | – |
| CNC(=O)c1c2cc(C3CC3)c(N(CCCNCc3cccnc3)S(C)(=O)=O)cc2nn1-c1ccc(Br)cc1 [Compound 211] | – | 1000 to 9990 nM | – | < 990 nM | – |
| CCOC(=O)C(CCCN(c1cc2nn(-c3ccc(Br)cc3)c(C(=O)NC)c2cc1C1CC1)S(C)(=O)=O)C(=O)OCC [Compound 212] | – | < 990 nM | – | < 990 nM | – |
| CNC(=O)c1c2cc(C3CC3)c(N(CCCOC)S(C)(=O)=O)cc2nn1-c1ccc(Br)cc1 [Compound 213] | – | < 990 nM | – | < 990 nM | – |
| CNC(=O)c1c2cc(C3CC3)c(N(CCCO)S(C)(=O)=O)cc2nn1-c1ccc(C)cc1 [Compound 214] | – | < 990 nM | – | < 990 nM | – |
| CNC(=O)c1c2cc(C3CC3)c(N(CCCNC(=O)[C@H]3CCC[C@H]3C(=O)OC)S(C)(=O)=O)cc2nn1-c1ccc(Br)cc1 [Compound 215] | – | < 990 nM | – | < 990 nM | – |
| CNC(=O)c1c2cc(C3CC3)c(N(CCCC(=O)NS(=O)(=O)C(F)(F)F)S(C)(=O)=O)cc2nn1-c1ccc(Cl)cc1 [Compound 217] | – | 1000 to 9990 nM | – | < 990 nM | – |
| CNC(=O)c1c2cc(C3CC3)c(N(CCCNC(=O)[C@H]3C[C@H]3C(=O)O)S(C)(=O)=O)cc2nn1-c1ccc(Br)cc1 [Compound 218] | – | 1000 to 9990 nM | – | < 990 nM | – |
| CNC(=O)c1c2cc(C3CC3)c(N(CCCNC(=O)c3ccn(C)c(=O)c3)S(C)(=O)=O)cc2nn1-c1ccc(Br)cc1 [Compound 219] | – | 1000 to 9990 nM | – | < 990 nM | – |
| CNC(=O)c1c2cc(C3CC3)c(N(CCCC(=O)OC(C)C)S(C)(=O)=O)cc2nn1-c1ccc(Br)cc1 [Compound 220] | – | < 990 nM | – | < 990 nM | – |
| CCN(C(=O)c1ccco1)c1cc2nn(-c3ccc(Br)cc3)c(C(=O)NC)c2cc1C1CC1 [Compound 221] | – | 1000 to 9990 nM | – | 10000 to 50000 nM | – |
| CNC(=O)c1c2cc(C3CC3)c(N(CCCO)S(C)(=O)=O)cc2nn1-c1ccc(Br)c(F)c1 [Compound 223] | – | < 990 nM | – | < 990 nM | – |
| CNC(=O)c1c2cc(C3CC3)c(N(CCCC(C(=O)O)C(=O)O)S(C)(=O)=O)cc2nn1-c1ccc(Br)cc1 [Compound 224] | – | 1000 to 9990 nM | – | < 990 nM | – |
| CCOC(=O)CCCN(CC)c1cc2nn(-c3ccc(Br)cc3)c(C(=O)NC)c2cc1C1CC1 [Compound 225] | – | < 990 nM | – | 1000 to 9990 nM | – |
| CNC(=O)c1c2cc(C3CC3)c(-c3c(C)noc3C)cc2nn1-c1ccc(C)cc1 [Compound 226] | – | 1000 to 9990 nM | – | 10000 to 50000 nM | – |
| CNC(=O)c1c2cc(C3CC3)c(N(CCCC(=O)O)S(C)(=O)=O)cc2nn1-c1ccc(C)cc1 [Compound 229] | – | 10000 to 50000 nM | – | < 990 nM | – |
| CCOC(=O)CCCN(c1cc2nn(-c3ccc(C)cc3)c(C(=O)NC)c2cc1C1CC1)S(C)(=O)=O [Compound 230] | – | < 990 nM | – | < 990 nM | – |
| CNC(=O)c1c2cc(C3CC3)c(N(CC3CC3)S(C)(=O)=O)cc2nn1-c1ccc(Br)cc1 [Compound 231] | – | < 990 nM | – | < 990 nM | – |
| CNC(=O)c1c2cc(C3CC3)c(N(CCOC)S(C)(=O)=O)cc2nn1-c1ccc(Br)cc1 [Compound 232] | – | < 990 nM | – | 1000 to 9990 nM | – |
| CNC(=O)c1c2cc(C3CC3)c(N(CCC(F)(F)F)S(C)(=O)=O)cc2nn1-c1ccc(Br)cc1 [Compound 233] | – | < 990 nM | – | < 990 nM | – |

| Compound | EC50 [1] | EC50 [2, 4] | EC50 ([2]; read-out: Replicon 1b EC50) | IC50 (1b (BK) NS5bΔ21) | EC50 [3] |
| --- | --- | --- | --- | --- | --- |
| CCN(c1cc2nn(-c3ccc(Br)c(F)c3)c(C(=O)NC)c2cc1C1CC1)S(C)(=O)=O [Compound 236] | – | < 990 nM | – | < 990 nM | – |
| CNC(=O)c1c2cc(C3CC3)c(N(C)S(C)(=O)=O)cc2nn1-c1ccc(Cl)cc1 [Compound 237] | – | < 990 nM | – | < 990 nM | – |
| CNC(=O)c1c2cc(C3CC3)c(N(CCC(CO)CO)S(C)(=O)=O)cc2nn1-c1ccc(Cl)cc1 [Compound 238] | – | 1000 to 9990 nM | – | < 990 nM | – |
| CCN(c1cc2nn(-c3ccc(Cl)c(F)c3)c(C(=O)NC)c2cc1C1CC1)S(C)(=O)=O [Compound 239] | – | < 990 nM | – | < 990 nM | – |
| CNC(=O)c1c2cc(C3CC3)c(N(CCF)S(C)(=O)=O)cc2nn1-c1ccc(Br)cc1 [Compound 241] | – | < 990 nM | – | < 990 nM | – |
| CNC(=O)c1c2cc(C3CC3)c(N(CCCNC(=O)C(C)C)S(C)(=O)=O)cc2nn1-c1ccc(Cl)cc1 [Compound 242] | – | < 990 nM | – | < 990 nM | – |
| CNC(=O)c1c2cc(C3CC3)c(N(CCCOC)S(C)(=O)=O)cc2nn1-c1ccc(Cl)cc1 [Compound 243] | – | < 990 nM | – | < 990 nM | – |
| CCN(c1cc2nn(-c3ccc(C)c(F)c3)c(C(=O)NC)c2cc1C1CC1)S(C)(=O)=O [Compound 244] | – | < 990 nM | – | < 990 nM | – |
| CNC(=O)c1c2cc(C3CC3)c(N(CCC(F)(F)F)S(C)(=O)=O)cc2nn1-c1ccc(Cl)cc1 [Compound 245] | – | < 990 nM | – | < 990 nM | – |
| CNC(=O)c1c2cc(C3CC3)c(N(CC3CC3)S(C)(=O)=O)cc2nn1-c1ccc(Cl)cc1 [Compound 246] | – | < 990 nM | – | < 990 nM | – |
| CNC(=O)c1c2cc(C3CC3)c(N(CCF)S(C)(=O)=O)cc2nn1-c1ccc(Cl)cc1 [Compound 247] | – | < 990 nM | – | < 990 nM | – |
| CNC(=O)c1c2cc(C3CC3)c(N(CC3CCOCC3)S(C)(=O)=O)cc2nn1-c1ccc(Cl)cc1 [Compound 249] | – | < 990 nM | – | < 990 nM | – |
| CNC(=O)c1c2cc(C3CC3)c(N(CCC3CCOCC3)S(C)(=O)=O)cc2nn1-c1ccc(Cl)cc1 [Compound 250] | – | < 990 nM | – | < 990 nM | – |
| CNC(=O)c1c2cc(C3CC3)c(N(CCCNC(=O)[C@H]3CCCC[C@H]3C(=O)O)S(C)(=O)=O)cc2nn1-c1ccc(Br)cc1 [Compound 251] | – | < 990 nM | – | < 990 nM | – |
| CNC(=O)c1c2cc(C3CC3)c(N(CC3CCOC3)S(C)(=O)=O)cc2nn1-c1ccc(Cl)cc1 (stereo not drawn) [Compound 252] | – | < 990 nM | – | < 990 nM | – |
| CNC(=O)c1c2cc(C3CC3)c(N(CC(F)F)S(C)(=O)=O)cc2nn1-c1ccc(Br)cc1 [Compound 253] | – | < 990 nM | – | < 990 nM | – |
| CNC(=O)c1c2cc(C3CC3)c(N(CC(F)F)S(C)(=O)=O)cc2nn1-c1ccc(Cl)cc1 [Compound 254] | – | < 990 nM | – | < 990 nM | – |
| CCN(c1cc2nn(-c3ccc(NC)nc3)c(C(=O)NC)c2cc1C1CC1)S(C)(=O)=O [Compound 255] | – | < 990 nM | – | < 990 nM | – |
| CNC(=O)c1c2cc(C3CC3)c(N(CCC3CCOC3)S(C)(=O)=O)cc2nn1-c1ccc(Br)cc1 (stereo not drawn) [Compound 256] | – | < 990 nM | – | < 990 nM | – |
| CNC(=O)c1c2cc(C3CC3)c(N(CCC3CCOC3)S(C)(=O)=O)cc2nn1-c1ccc(Cl)cc1 (stereo not drawn) [Compound 257] | – | < 990 nM | – | 1000 to 9990 nM | – |
| CCN(c1cc2nn(-c3ccc(Br)cc3)c(C(=O)NC)c2cc1C1CC1)S(=O)(=O)C(F)(F)F [Compound 258] | – | 1000 to 9990 nM | – | 1000 to 9990 nM | – |
